Target: GluER (Gluconobacter oxydans, UniProt Q5FTL6, T36A)
Test: UV-visible spectrum of reduced enzyme
Type: binding
Conditions: dithionite reduction

Cc1cc2c(cc1C)N(C[C@H](O)[C@H](O)[C@H](O)COP(=O)(O)O)c1[nH]c(=O)[nH]c(=O)c1N2 [FMNhq]
UV-visible spectrum of reduced enzyme: UV-visible spectrum of reduced GluER-T36A (FMNhq)
